# US20050037956A1, “Screening method for agents useful in treating diabetes” (priority 2001, published 2005)
# Columns and labels:
# [1] = tested on: PAI-1 mRNA; assay: PAI-1 mRNA induction by insulin at different stages of NIH3T3-L1 differentiation (Northern blot); assay type: cell-based
# Procedure: NIH3T3-L1 preadipocytes (ATCC No. CL-173) were induced to differentiate into adipocytes by treating confluent cells with a mixture of insulin, dexamethasone and isobutylmethylxanthine followed by a successive change of different media (Student, A. K. et al., 1980, J Biol Chem. 255:4745-4750). In brief, NIH3T3-L1 preadipocytic cells (2×10^5 cells) were grown in 60-mm plastic dishes with 4 ml Dulbecco's modified Eagle's medium (DMEM) supplemented with 10% fetal bovine serum (FBS). Two days after cells reached confluency, the medium was changed to DMEM containing 10% FBS, 10 μg/ml insulin, 1 μM dexamethason, and 0.5 mM isobutylmethylxanthine. Two days later, this medium was replaced with DMEM supplemented only with 10 μg/ml insulin. Subsequently, two days later this medium was withdrawn and replaced with DMEM containing 10% FBS, and thereafter cells were replenished with the same medium every two days.
# (§1) Adipocyte differentiation was monitored by staining lipids with oil-red O. Briefly, cells were washed twice with phosphate buffered saline (PBS) and fixed with 3.7% formaldehyde solution for 1 h. After washing twice with PBS, cells were stained with oil-red O [60:40 (v/v) dilution in water of 0.5% stock solution (v/v, in isopropanol)] for 1 h. Cells were then washed twice with PBS and twice with water. Lipid-positive cells started to appear after the third day of induction and reached more than 90% by the eighth day. PPARγ (peroxisome proliferator-activated receptor gamma) mRNA, another marker of adipocyte differentiation, also started to appear at the third day and reached a plateau by the 5th day. For RNA analysis, total RNA (12 μg), prepared with acid guanidinium thiocyanate-phenol-chloroform method, was resolved by agarose gel electrophoresis under denaturing conditions and transferred to a nylon membrane as described (Northern blotting) (Ziegler, A., et al., 1991, J Biol Chem 266(31): 21067-74). […] Levels of specific RNA were measured using a Molecular Dynamic PhosphorImager. […]
# [2] = tested on: PAI-1 expression; assay: PAI-1 induction by insulin in adipocytes in presence of PI3K or MEK1 inhibitors; assay type: cell-based; conditions: adipocytes treated by insulin in presence of inhibitor
# Procedure: as §1, with “21067-74). Equal RNA loading and transfer to nylon membranes were confirmed by staining rRNA with methylene blue (Herrin, D. L. and G. W. Schmidt, 1988, Biotechniques 6(3): 196-7, 199-200).” for “21067-74).”
# [3] = tested on: pRB-E2F interaction (E2F-pRB complex); assay: Electromobility shift assay (EMSA) with E2pro oligonucleotide and nuclear extracts from day 8 NIH3T3-L1 cells, peptide added to binding reaction; conditions: in vitro, increasing peptide concentration added to binding reaction, day 8 NIH3T3-L1 nuclear extracts
# Procedure: Changes in E2F DNA-binding patterns during adipogenesis were investigated. Nuclear extracts were prepared from NIH3T3-L1 cells at different times during induction of differentiation and their E2F DNA-binding activity was assessed by DNA gel shift assays using a radio active E2pro oligonucleotide corresponding to two tandem E2F binding sites in the adenovirus E2 promoter. Oligonucleotide probes were radiolabeled using E. coli polynucleotide kinase and {γ-32P}ATP. The oligonucleotides used for electromobility shift assays (EMSA) were as follows (only upper strands are given): E2pro (corresponding to the −72 to −32 region of the adenovirus E2 promoter; E2F binding site), 5′-[…]-3′ (SEQ ID NO:1); CycD1 (E2F binding site from the cyclin D1 promoter), 5′-[…]-3′ (SEQ ID NO:2); CycD1m, 5′-[…]-3′ (SEQ ID NO:3, mutated nucleotides in bold italic). […] The gel was dried and analyzed using a PhosphorImager. […]
# The specific peptide was modified to improve cell penetration by linking to the amino terminal end of the interfering peptide a specific region of the HIV tat protein of 18 amino acids in length, which renders conjugated peptides cell-penetrable (Schwarze, S. R., et al., 1999, Science 285(5433): 1569-72). The effect of this elongated interfering peptide on E2F was first assessed in vitro as above. […]
molecule,measurement,setting,value
insulin,PAI-1 mRNA induction by insulin,[1]; NIH3T3-L1 cells before cells were confluent,induced to a very low extent
same,PAI-1 mRNA induction by insulin,[1]; NIH3T3-L1 cells when confluent,not at all
same,PAI-1 mRNA induction by insulin,[1]; terminally differentiated cells (day 4 and 8),induced markedly
COc1cccc(-c2cc(=O)c3ccccc3o2)c1N [PD98059],PAI-1 induction by insulin,[2],suppressed
"specific interfering peptide: peptide whose sequence was derived from amino acids 402-419 of E2F1 corresponding to the pRB-binding region of E2F1 (LSPPHEALDYHFGLEEGE; UniProt Q01094 402-419, looked up, fragment)","shift of DNA-protein complexes (E2F DNA-binding, EMSA)",[3],shift from DNA-protein complexes of higher molecular weight forms to complexes of lower molecular weight forms
